Assay: physchem
From the text: Determination of the small molecule content in a complex plant matrix depends on the understanding of minimum solubility in the chosen extraction solvent. […] Often, tests on mixture are hardly reproducible on pure compounds if this aspect is not routinely considered in the workflow. We performed a general testing of best solvent systems to compare a wide range of small molecules of interest to understand the limitations of general approaches within a complex plant matrix such as Nicotiana.
For each of the 29 reference compounds, 2 mg was weighed into a 15 mL glass tube and dissolved in the minimum amount of the test solvent by gradually adding the solvent with a micropipette until complete dissolution or to a final volume of 10.0 mL. Seven solvents with polarities from nonpolar to polar were chosen for the test: hexane (C6H14), CH2Cl2, CH2Cl2/MeOH (4:1, v/v), EtOH, MeOH, MeOH/H2O (7:3, v/v), and H2O. The consumed solvents and their volumes were recorded for each reference compound.

## Vitamin E
  Solubility in C6H14: 215 mg/mL
  Solubility in CH2Cl2: 208 mg/mL
  Solubility in CH2Cl2/MeOH (4:1): 241 mg/mL
  Solubility in EtOH: 43.0 mg/mL
  Solubility in H2O: NS (key: NS: not soluble, insoluble in the solvent at the tested concentration range (0.19–558 mg/mL))
  Solubility in MeOH: 31.2 mg/mL
  Solubility in MeOH/H2O (7:3): 0.23 mg/mL

Reference: PMC9694777, “Fractionation and Extraction Optimization of Potentially Valuable Compounds and Their Profiling in Six Varieties of Two Nicotiana Species” (Molecules, 2022)
